What all share (type): cell-based
In experiment [1] the test system is Cobetia marina CECT 4278. Description: Marine bacteria growth inhibition (broth microdilution, OD625). To be noted: growth inhibition, 24 h, 30 °C, three replicates; read-out: IC50 C. marina. The method, then: (§1) All the biological assays were run by triplicate. […] For the active products, serial dilutions were performed to calculate the half-maximal inhibitory concentrations (IC50) or the minimal inhibitory concentrations (MIC). Unless otherwise stated, the test concentrations were 100, 50, 25, 10, 5, 2.5, 1, 0.5 and 0.1 μM. Dose-response curves were adjusted with GraphPad Prism 5 software using a four-parameter non-linear regression model.
(§2) Growth inhibition was assessed in Marine Broth (Conda) according to CLSI guidelines for broth microdilution susceptibility testing. The incubation time was 24 h and the incubation temperature was 30 °C.
For orientation: Dilution methods test growth across graded concentrations, often in twofold steps.

In experiment [2] the test system is Pseudoalteromonas atlantica CECT 579. The description is as above. As to conditions: growth inhibition, 24 h, 30 °C, three replicates; read-out: IC50 P. atlantica. As to the method:
as §1, §2

In experiment [3] the test system is Vibrio alginolyticus CECT 521. The description is as above. As to conditions: growth inhibition, 24 h, 30 °C, three replicates; read-out: IC50 V. alginolyticus. As to the method: as §1, §2
For experiment [4], the system named is Cellulophaga lytica CECT 5014. The description is as above. To be noted: growth inhibition, 24 h, 30 °C, three replicates; read-out: IC50 C. lytica. As to the method: as §1, §2
Experiment [5] has as its system Shewanella algae CECT 5021. The experiment is described as above. As to conditions: growth inhibition, 24 h, 30 °C, three replicates; read-out: IC50 S. algae. The method, then:
as §1, §2

Experiment [6] concerns Vibrio anguillarum CECT 4347. The experiment is described as above. To be noted: growth inhibition, 24 h, 30 °C, three replicates; read-out: IC50 V. anguillarum. The method, then:
as §1, §2

For experiment [7], the system named is Alternaria sp. Description: Marine-derived fungi growth inhibition (OD405). To be noted: growth inhibition, 5 days, 26 °C; read-out: IC50 Alternaria sp. The method, then:
as §1
(§3) Three strains of marine-derived fungi were kindly provided by Dr. Á. Trigos (University of Veracruz, Mexico). The strains were isolated from reef organisms collected from the Veracruz Reef System and identified as Aspergillus sp., Fusarium sp. and Alternaria sp..
(§4) Fungal strains were cultured in Potato-Dextrose Agar (PDA) supplemented with filtered seawater (FSW) (50% v/v) at 26 °C for 5 days prior to experiments. […] Briefly, fungal inocula were prepared by addition of 5 ml of sterile saline solution to the cultures. Gently swabbing released conidia. […] The plates were incubated for 5 days at 26 °C. The calculation of the half-maximal inhibitory concentrations (IC50) was performed using OD405 as endpoint.

Experiment [8] deals with Aspergillus sp. Description: Marine-derived fungi growth inhibition (OD405). As to conditions: growth inhibition, 5 days, 26 °C; read-out: IC50 Aspergillus sp. The method, then:
as §1, §3, §4

Experiment [9] relates to Fusarium sp. Description: Marine-derived fungi growth inhibition (OD405). As to conditions: 5 days, 26 °C. The method, then: All the biological assays were run by triplicate.
as §3, §4

Experiment [10] deals with Gayralia oxysperma spores. Description: Macroalgal spore germination inhibition. As to conditions: 6 days, 19±1 °C. The method, then:
as §1
To evaluate the effect of the phosphonium salts on the germination of macroalgal spores, Gayralia oxysperma (Kützing) K.L.Vinogradova was selected as model organism. G. oxysperma (Ulotrichales, Chlorophyta) is a cosmopolitan member of the Ulvophyceae. Unlike Ulva species, which produce biflagellate male and female gametes, as well as quadriflagellate spores, G. oxysperma only produces biflagellate spores. This is an advantage as bioassays can be conducted straightforwardly without the need to distinguish between gamete-producing and zoospore-producing plants. […] Fresh fertile fragments were selected and placed in Petri dishes. Spores were then released in Von Stosch Solution (VSS) by the osmotic method. Bioassays were conducted in flat-bottom 96-well plates as described by Chambers and co-workers, with slight modifications. Each well was filled with 50 μl of the appropriate dilution of the products in VSS to which 50 μl of spore inoculum (ca. 2 x 10^5 spores ml^-1) were added. Plates were incubated at 19±1 °C for 6 days. After the incubation time, the bottom of each well was examined for the presence of germinated spores with an inverted microscope. A spore was considered as germinated when the germ tube was visible. The MIC was recorded as the lowest concentration inhibiting spore germination.

Experiment [11] concerns Phaeodactylum tricornutum. Description: Benthic diatom growth inhibition (chlorophyll-a). To be noted: growth, 5 days, chlorophyll-a; read-out: IC50 P. tricornutum. The method, then: as §1
(§5) Five strains of benthic diatoms, Nitszchia sp. […] The Nitzschia and Navicula strains were purchased from the Spanish Bank of Algae (Marine Biotechnology Center, University of Las Palmas de Gran Canaria). The other three strains were kindly provided by Dr. G. Courtois (University of Las Palmas de Gran Canaria). Diatoms were cultured at 19±1 °C in Erlenmeyer flaks (250 ml) containing 150 ml of Guillard’s F/2 medium, and subjected to a photoperiod of 18:6. Tests were run in 48-well plates. Inocula were prepared by adjusting diatom concentration to 2–4 × 10^6 cells ml^-1 using a Neubauer chamber. Test products were dissolved in F/2 medium (500 μl) to which diatom inocula (500 μl) were added. Thus, the final assay volume was 1 ml and the starting cell densities were ca. 1–2 x 10^6 diatoms ml^-1. Plates were incubated under the abovementioned conditions for 5 days and then chlorophyll-a (Chla) was quantified.
(§6) In order to extract Chla, the content of each well was transferred to a microcentrifuge tube and centrifuged at 10,000 rpm for 10 min. The supernatants were discarded and 200 μl of DMSO were added to the pellets. The tubes were incubated at 65 °C for 2 h in total darkness and vortexed every 30 min. Then, the content of each tube was transferred to a 96-well plate and the amount of Chla was determined spectrophotometrically. Path length correction factor for the DMSO extracts was determined.

For experiment [12], the system named is Amphora sp. Description: Benthic diatom growth inhibition (chlorophyll-a). To be noted: growth, 5 days, chlorophyll-a; read-out: IC50 Amphora sp. As to the method:
as §1, §5, §6

Experiment [13] has as its system Cylindrotheca sp. Description: Benthic diatom growth inhibition (chlorophyll-a). To be noted: growth, 5 days, chlorophyll-a; read-out: IC50 Cylindrotheca sp. As to the method:
as §1, §5, §6

The subject of experiment [14] is Nitzschia sp. Description: Benthic diatom growth inhibition (chlorophyll-a). As to conditions: growth, 5 days, chlorophyll-a; read-out: IC50 Nitzschia sp. The method, then:
as §1, §5, §6

Experiment [15] concerns Navicula cf. salinicola BEA 0055. Description: Benthic diatom growth inhibition (chlorophyll-a). To be noted: growth, 5 days, chlorophyll-a; read-out: IC50 Navicula cf. salinicola. The method, then: as §1, §5, §6

Experimental findings from PMC4405350, “From Broad-Spectrum Biocides to Quorum Sensing Disruptors and Mussel Repellents: Antifouling Profile of Alkyl Triphenylphosphonium Salts” (PLoS ONE, 2015) are described below.

pIC50: −log10 of the molar value.

The term pIC50 denotes −log10 of the IC50, conventionally taken in molar units.

Take “bis-(tris-n-butyltin)oxide [TBTO, reference compound]”: the pIC50 in [1] is 4.47; in experiment [2] it was 4.33; in [3] it was 4.41; in experiment [4], 6.30; in experiment [5], 5.19; in experiment [6], 4.56. For the same substance, the negative-log IC50 (pIC50) is 6.22 in experiment [7]; 5.52 in experiment [8]; 5.17 in experiment [9]; 5.77 in experiment [11]; 5.24 in experiment [12]; 6.40 in experiment [13]. Further, the figures for the pIC50 in [14] and in experiment [15] were 5.55 and 5.20, respectively. Besides, the “MIC G. oxysperma (lowest concentration inhibiting spore germination)” value in experiment [10] worked out at 5 µM.
